According to ChEMBL document CHEMBL1126336, “Benzopyranyl-cyanoguanidine potassium channel openers” (Bioorg Med Chem Lett, 1992):

Assays:
Format in all cases: functional
[1] = organism: Rattus norvegicus; assay: Vasorelaxant potency required to relax methoxamine contracted male Wistar Kyoto rat thoracic aorta
[2] = test system: Rattus norvegicus; assay: Antihypertensive activity expressed as percent maximum decrease in blood pressure at 45 umol/kg for 0-6 hrs in male spontaneously hypertensive rats when administered perorally
[3] = test system: Rattus norvegicus; assay: Antihypertensive activity expressed as percent maximum decrease in blood pressure at 45 umol/kg for 12-18 hrs in male spontaneously hypertensive rats when administered perorally
[4] = test system: Rattus norvegicus; assay: Antihypertensive activity expressed as percent maximum decrease in blood pressure at 45 umol/kg for 18-24 hrs in male spontaneously hypertensive rats when administered perorally
[5] = test system: Rattus norvegicus; assay: Antihypertensive activity expressed as percent maximum decrease in blood pressure at 45 umol/kg for 6-12 hrs in male spontaneously hypertensive rats when administered perorally

| IC50 [1] [nM] | Structure (SMILES) | also measured |
| --- | --- | --- |
| 13100 | CC1(C)Oc2ccc(C#N)cc2[C@@H](/N=C(\NC#N)N2CCN(Cc3ccccc3)CC2)[C@@H]1O |  |
| 320 | CC1(C)Oc2ccc(C#N)cc2[C@@H](/N=C(/N)NC#N)[C@@H]1O |  |
| 120 | CC1(C)Oc2ccc(C#N)cc2[C@@H](N2CCCN=C2NC#N)[C@@H]1O |  |
| 470 | CC1(C)Oc2ccc(C#N)cc2[C@@H](N2CCN=C2NC#N)[C@@H]1O |  |

Further lines, the compound ahead of its results:

| Structure (SMILES) | IC50 [1] [nM] | also measured |
| --- | --- | --- |
| CN(C)CC/N=C(/NC#N)N[C@@H]1c2cc(C#N)ccc2OC(C)(C)[C@H]1O | > 100000 |  |
| CC1(C)Oc2ccc(C#N)cc2[C@@H](/N=C(\NC#N)N2CCCC2)[C@@H]1O | 34 |  |
| CC/N=C(/NC#N)N[C@@H]1c2cc(C#N)ccc2OC(C)(C)[C@H]1O | 380 |  |
| CCC(C)(C)/N=C(\NC#N)N[C@@H]1c2cc(C#N)ccc2OC(C)(C)[C@H]1O | 29800 |  |
| COCC/N=C(/NC#N)N[C@@H]1c2cc(C#N)ccc2OC(C)(C)[C@H]1O | 1690 |  |
| CN(C)/C(=N/[C@@H]1c2cc(C#N)ccc2OC(C)(C)[C@H]1O)NC#N | 490 |  |
| CC(C)/N=C(/NC#N)N[C@@H]1c2cc(C#N)ccc2OC(C)(C)[C@H]1O | 660 |  |
| C/N=C(\NC#N)N[C@@H]1c2cc(C#N)ccc2OC(C)(C)[C@H]1O | 200 | Max decrease [2]: 46%; Max decrease [3]: 23%; Max decrease [4]: 15%; Max decrease [5]: 44% |
| CC1(C)Oc2ccc(C#N)cc2[C@@H](N2CCCC2=O)[C@@H]1O [CROMAKALIM] |  | Max decrease [2]: 63%; Max decrease [3]: 37%; Max decrease [4]: 42%; Max decrease [5]: 35% |
| CC(N/C(=N\C#N)Nc1ccncc1)C(C)(C)C (centres undefined) [PINACIDIL ANHYDROUS] |  | Max decrease [2]: 40%; Max decrease [3]: 23%; Max decrease [4]: 14%; Max decrease [5]: 21% |
